Like-named read-outs stand apart in the source and are kept apart here.
Experiments:
[1] = system: male ICR albino mice; experiment: Hypobaric hypoxia survival time in mice; format: in vivo
Outline: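 Drugs given i.p. 1 h before hypobaric hypoxia at 100 mmHg; time to respiratory arrest recorded, cutoff 15 min. Effect expressed as percent of saline- or vehicle-control survival time. Each dose tested in two groups of 4 mice, controls run before and after.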

[2] = system: Male mongolian gerbils; experiment: Global brain ischemia in gerbils (CA1 pyramidal neurons); format: in vivo; conditions: 3 injections, fraction of hippocampi protected from ischemia, 14 days post-ischemia
Outline: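 Global ischemia induced by clamping each artery for 5 min. Compound given ip 2 min after clamp removal, then daily for the next 2 days (3 doses). CA1 pyramidal neurons counted 14 days post-ischemia in H&E-stained anterior hippocampal sections; percent protection is the fraction of hippocampi protected at the stated dose.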

[3] = system: mice; experiment: Maximal electroshock (MES) model in mice, i.p.;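 also: Electroshock-induced convulsion model serving to demonstrate antiepileptic efficacy against generalized and partial seizures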; format: in vivo; conditions: Mus musculus, ip, Table 15
[4] = system: rats; experiment: Maximal electroshock (MES) model in rats, p.o.;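 also: rat MES model gauging antiepileptic efficacy versus generalized and partial seizures after oral dosing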; format: in vivo; conditions: Rattus norvegicus, po, read-out: RATS MES 50
[5] = target: T1, MAO-A (Rattus norvegicus, UniProt P21396); conditions: ex vivo brain
T1 sequence (P21396 1-526): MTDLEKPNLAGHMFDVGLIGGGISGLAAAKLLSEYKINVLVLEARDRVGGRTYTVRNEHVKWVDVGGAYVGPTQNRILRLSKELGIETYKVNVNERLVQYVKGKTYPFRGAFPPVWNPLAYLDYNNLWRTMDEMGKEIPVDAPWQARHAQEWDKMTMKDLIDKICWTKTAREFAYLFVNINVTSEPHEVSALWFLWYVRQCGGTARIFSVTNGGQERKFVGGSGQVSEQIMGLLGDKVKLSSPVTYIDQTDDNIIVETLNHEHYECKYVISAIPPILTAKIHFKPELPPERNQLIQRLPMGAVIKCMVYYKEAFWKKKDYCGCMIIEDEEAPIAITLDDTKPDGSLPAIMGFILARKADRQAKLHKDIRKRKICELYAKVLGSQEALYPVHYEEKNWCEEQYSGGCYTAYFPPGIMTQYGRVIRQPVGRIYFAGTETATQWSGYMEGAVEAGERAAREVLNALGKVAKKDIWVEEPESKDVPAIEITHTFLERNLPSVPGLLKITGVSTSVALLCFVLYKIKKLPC
Source text: The brains of some rats from each experimental group in Exp. 1 (chronic treatment of 80 days) and Exp. 2 (acute treatment of 14 days) were ex vivo analyzed for MAO-A and MAO-B activity.

[6] = 50 mg/kg ip one hour prior to hypoxia
[7] = 100 mg/kg ip one hour prior to hypoxia
[8] = dose cell empty (line below 50 mg/kg ip)

Structure (SMILES)	PROTECTION % OF RESPECTIVE CONTROL [1, 6] [% OF RESPECTIVE CONTROL]	PROTECTION % OF RESPECTIVE CONTROL [1, 7] [% OF RESPECTIVE CONTROL]	PROTECTION % OF RESPECTIVE CONTROL [1, 8] [% OF RESPECTIVE CONTROL]	PERCENT PROTECTION ([2]; 0.1 mg/kg ip) [%]	PERCENT PROTECTION ([2]; 1.0 mg/kg ip) [%]	PERCENT PROTECTION ([2]; 10.0 mg/kg ip) [%]	ED50 [3] [mg/kg]	ED50 ([4]; rats, p.o., Table 15) [mg/kg]	ED50 [4] [mg/kg]	% inhibition of MAO A acute treatment ([5]; acute treatment of 14 days) [%]	% inhibition of MAO A chronic treatment ([5]; chronic treatment of 80 days) [%]
CC(=O)N[C@@H]1CCc2ccccc21 [Example 18, (R)-N-Acetyl-1-aminoindan]	271±193	397±244	383±233	25.0	25.0	66.7	31	14	–	–	–
N[C@@H]1CCc2ccccc21 [R-AI, (R)-1-aminoindan]	358±224	395±199	411±174	25.0	25.0	25.0	–	–	184	13	6

Reference: patent EP0738149B1 (priority 1994, dated 1995)
